Results on 7 compounds are retold here after patent publication US4910194A, “Thienotriazolodiazepine compounds and pharmaceutical uses thereof” (Yoshitomi Pharmaceutical Industries, Ltd., priority 1988, dated 1990).

≈ marks a conversion by molar mass, not a printed value.

One may read the ED50 as the midpoint of the dose-response relation. The IC50 is the concentration that gives 50% inhibition.

In one assay the test system is PAF. The note with it: literature; cited from earlier work.
The test system of another assay is PAF-induced lethal shock. As to the kind of experiment: Effect on PAF-induced lethal shock in mice. It counts as in vivo. The following applies: Mus musculus; male ICR mice, oral 1 hour before 80 μg/kg PAF i.v., survival over 24 hours; read-out: ED50 (p.o.), PAF-induced lethal shock. Here is the method: The experiment was carried out according to the method of Young et al. described in Prostaglandins, Vol. 30, p. 545 (1985). Groups of 9 to 15 male ICR mice (Charles River) weighing 25-30 g were used. 80 μg/kg of PAF (Serdary Research Lab.) solution was intravenously administered in a lateral tail vein 1 hour after the oral administration of test compound (0.1 ml/10 g). […] The ED50 (mg/kg, p.o.) of the compound of Example 2 was 0.01 mg/kg.

Assay [1] has as its system PAF-induced platelet aggregation. Put plainly: Inhibitory effect on platelet aggregation in rabbits (in vitro test). The class given is cell-based. The note with it: Oryctolagus cuniculus, rabbit PRP, PAF 1.8×10^-7 M, 37° C., read-out: Inhibition of PAF-induced platelet aggregation, IC50. The protocol: Blood samples to which was added 0.1 volume of 3.8% sodium citrate were collected from rabbits. Platelet rich plasma (PRP) was prepared by centrifuging the blood sample at 200×g for 10 minutes, and platelet poor plasma (PPP) was prepared by centrifuging the remaining blood sample at 1000×g for 10 minutes.
Aggregation ability was measured with a turbidimetric device (6-channel NKK Hematracer 1, model PAT-6A) according to the method of G. V. R. Born described in J. Physiology, vol. 168, p. 178 (1963). The aggregometer was adjusted in sensitivity to give light transmission values of 0 and 100% for PRP and PPP, respectively. With stirring at 1000 rpm, 0.3 μl of test compound solution or vehicle was added to 0.3 ml of PRP. After the mixture was kept at 37° C. for 2 minutes, to the mixture was added 3 μl PAF (Serdary Research Lab.) at the final concentration of 1.8×10^-7 M and the light transmission was recorded for 5 minutes.
In all experiments, PAF was dissolved in ethanol at the concentration of 100 μg/ml, and, when used, diluted with 0.9% saline solution.
The inhibition percentage of test compounds on platelet aggregation were calculated from the following formula by measuring the maximal light transmission in the presence and absence of the test compounds. [formula]
IC50 (μg/ml, concentration of 50% inhibition) was graphically determined.

The test system is the same in assay [2]. As to the kind of experiment: Inhibitory effect on platelet aggregation in rabbits (ex vivo test). The note with it: Oryctolagus cuniculus, po, rabbit, 1 mg/kg orally, 24 hours, read-out: percentage of inhibition of platelet aggregation at 24 hours after oral administration. The protocol: Test compound (1 mg/kg) was orally administered to rabbit instead of adding it to PRP as in vitro test of Experiment 1, and then the citrated blood samples (9 volumes of blood+1 volume of 3.8% sodium citrate) were collected with the passage of time. Then, the blood samples were employed to determine the inhibitory effect on platelet aggregation according to Experiment 1. The percentage of inhibition at 24 hours after the oral administration of the compound of Example 2 was 100%.

Turning to `Cc1nnc2n1-c1sc(CCC(=O)N3CCOCC3)cc1C(c1ccccc1Cl)=NC2` [4-(2-chlorophenyl)-9-methyl-6H-thieno-[3,2-f][1,2,4]triazolo[4,3-a][1,4]diazepine-2-propionic acid morpholide], the “antagonistic activity on PAF” value in the assay on PAF is given as “exhibit antagonistic activity on PAF”. On to `CCc1cc2c(s1)-n1c(C)nnc1CN=C2c1ccccc1Cl` [Etizolam, 6-(o-chlorophenyl)-8-ethyl-1-methyl-4H-s-triazolo[3,4-c]thieno[2,3-e][1,4]diazepine], for which the “antagonistic activity on PAF” value with PAF is listed as “exhibits antagonistic activity on PAF”. Regarding `Cc1nnc2n1-c1sc(CCc3ccc(C(O)C(C)C)cc3)cc1C(c1ccccc1Cl)=NC2C` (stereo not drawn) [Example 2, 4-(2-chlorophenyl)-2-[2-(4-(1-hydroxy-2-methylpropyl)phenyl)ethyl]-6,9-dimethyl-6H-thieno-[3,2-f][1,2,4]triazolo[4,3-a][1,4]diazepine], the 50% effective dose (ED50) in the assay on PAF-induced lethal shock was 0.01 mg/kg. In addition, the half-maximal inhibitory concentration (IC50) in assay [1] is 0.01 to 0.03 µg/mL (≈ 0.0198 to 0.0594 µM). Moreover, in assay [2], the inhibition at 1 mg/kg was 100%. On to `Cc1nnc2n1-c1sc(CCc3ccc(CC(C)(C)O)cc3)cc1C(c1ccccc1Cl)=NC2C` (stereo not drawn) [Example 3, 4-(2-chlorophenyl)-2-[2-(4-(2-hydroxy-2-methylpropyl)phenyl)ethyl]-6,9-dimethyl-6H-thieno[3,2-f][1,2,4]triazolo[4,3-a][1,4]diazepine], for which, in assay [1], the half-inhibitory concentration (IC50) is 0.01 to 0.03 µg/mL (≈ 0.0198 to 0.0594 µM). Still for that read-out and setting: next, `Cc1nnc2n1-c1sc(CCc3ccc(CC(C)CO)cc3)cc1C(c1ccccc1Cl)=NC2C` (stereo not drawn) [Example 4, 4-(2-chlorophenyl)-2-[2-(4-(3-hydroxy-2-methylpropyl)phenyl)ethyl]-6,9-dimethyl-6H-thieno[3,2-f][1,2,4]triazolo[4,3-a][1,4]diazepine]: 0.03 to 0.1 µg/mL (≈ 0.0594 to 0.198 µM). In the case of `Cc1nnc2n1-c1sc(CCc3ccc(C(=O)C(C)(C)O)cc3)cc1C(c1ccccc1Cl)=NC2C` (stereo not drawn) [Example 5, 4-(2-chlorophenyl)-2-[2-(4-(2-hydroxy-2-methylpropionyl)phenyl)ethyl]-6,9-dimethyl-6H-thieno[3,2-f][1,2,4]triazolo[4,3-a][1,4]diazepine], the IC50 in assay [1] is 0.01 to 0.03 µg/mL (≈ 0.0193 to 0.0578 µM). As to `Cc1nnc2n1-c1sc(CCc3ccc(C(O)C(C)(C)O)cc3)cc1C(c1ccccc1Cl)=NC2C` (stereo not drawn) [Example 6, 4-(2-chlorophenyl)-2-[2-(4-(1,2-dihydroxy-2-methylpropyl)phenyl)ethyl]-6,9-dimethyl-6H-thieno[3,2-f][1,2,4]triazolo[4,3-a][1,4]diazepine], the half-maximal inhibitory concentration (IC50) in assay [1] lay in the range of 0.03 to 0.1 µg/mL (≈ 0.0576 to 0.192 µM).
